Measured values reported in patent US20060183144A1, “Methods and compositions for assessing nucleic acids” (Medical College of Ohio, priority 2005, published 2006).

Tests used:
[1] = system: cytochrome p450 IA1 (CYPIAI); experiment: Northern analysis of CYPIAI gene expression; assay type: cell-based, human; conditions: BEP2D cells incubated with β-napthoflavone (10 μM); control 0.1% DMSO; 32P-labeled CYPIAI cDNA probe
Experimental: RNA from BEP2D cells incubated for varying times with β-napthoflavone (10 μM) was either electrophoresed on a 1% LE formaldehyde denaturing gel for Northern analysis or MC RT-PCR amplified, as described above. For Northern analysis, following transfer of the RNA to GeneScreen, the filters were hybridized with ^32P-labeled CYPLAI cDNA.

[2] = system: cytochrome p450 (CYP) IAI gene; experiment: MC RT-PCR with Celi competitive templates, induction of CYPIAI gene expression; assay type: cell-based, human; conditions: BEP2D cells incubated with β-napthoflavone (10 μM); control 0.1% DMSO; about the same cDNA loading by GAPDH reference gene
Experimental: In a second set of experiments, multiplex competitive reverse transcriptase polymerase chain reaction (MC RT-PCR) with competitive templates were prepared by the Celi method to evaluate the cytochrome p450 (CYP) IAI gene in β-napthoflavone-exposed BEP2D cells. The induction of CYPIAI gene expression was evaluated using both MC RT-PCR with Celi competitive templates, and Northern analysis. Competitive templates were prepared for both the CYPIAI and GAPDH genes. The primers used to prepare the competitive template for GAPDH were: […]
The PCR amplification conditions were the same as described for experiments using the competitive templates prepared for GAPDH and GSHPx by the Higuchi method except the annealing temperature was 55 degrees centigrade and the amplification was carried out for 38 cycles.
Because the native and competitive templates separate without prior restriction endonuclease digestion, samples were taken directly from the PCR reaction tube and applied to ethidium bromide stained 3% Nusieve, 1% LE agarose gels. It was then possible to quantify the products by taking a negative photograph of the gel using Polaroid 665 positive/negative instant film, subjecting the negative photograph to densitometry. […]

gene expression of the CYPIAI gene [1]: increase | band representing the native CYPIAI gene, exposed cells compared to control cells [2]: much more strongly represented
SMILES: O=c1cc(-c2ccccc2)oc2ccc3ccccc3c12 [β-napthoflavone]
